Bounds are passed on as bounds.

One data set deals with Albumin (Homo sapiens, UniProt P02768). Kind of data set: Binding affinity to human serum albumin by HPLC analysis. In kind it is ADME. Particulars: isolated protein.
Chain of Albumin (P02768 whole entry): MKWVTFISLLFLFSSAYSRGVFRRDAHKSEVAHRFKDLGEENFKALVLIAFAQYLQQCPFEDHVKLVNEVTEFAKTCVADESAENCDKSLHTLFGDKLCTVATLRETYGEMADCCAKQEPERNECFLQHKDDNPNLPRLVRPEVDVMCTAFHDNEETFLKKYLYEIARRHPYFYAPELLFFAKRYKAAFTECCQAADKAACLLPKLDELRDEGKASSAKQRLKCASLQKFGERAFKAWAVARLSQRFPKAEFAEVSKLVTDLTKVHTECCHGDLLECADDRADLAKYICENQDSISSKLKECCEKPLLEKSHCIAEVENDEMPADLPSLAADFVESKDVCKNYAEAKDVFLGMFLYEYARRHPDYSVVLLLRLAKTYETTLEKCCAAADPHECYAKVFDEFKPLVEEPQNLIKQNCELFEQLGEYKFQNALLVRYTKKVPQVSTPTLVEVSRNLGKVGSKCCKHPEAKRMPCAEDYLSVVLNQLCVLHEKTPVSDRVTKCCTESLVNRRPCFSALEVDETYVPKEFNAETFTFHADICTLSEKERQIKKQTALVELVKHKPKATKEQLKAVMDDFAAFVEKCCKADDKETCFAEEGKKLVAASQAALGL
Turning to `CN(/N=N/c1ccc(Br)cc1)C(=O)N[C@@H](CCC(=O)O)C(=O)O`, the outcome was Active.

In the next data set the test system is Pseudomonas sp. Kind of data set: Activity of Pseudomonas sp. carboxypeptidase G2 assessed as half life of compound hydrolysis by UV spectrophotometric analysis.
Details: not given
On to `CN(/N=N/c1ccc(C#N)cc1)C(=O)N[C@@H](CCC(=O)O)C(=O)O`, for which the T1/2 amounted to 3.5 min.
The same measure, in the same setting: with `CCOC(=O)c1ccc(/N=N/N(C)C(=O)N[C@@H](CCC(=O)O)C(=O)O)cc1` the figure was 5.7 min.

Tested on in another data set: not listed separately
Kind of data set: Protein binding in human plasma. Particulars: read-out: PPB (converted). The class given is ADME, cell-free.
Consider `O=C(O)CC[C@H](NC(=O)c1ccc(N(CCCl)CCCl)cc1)C(=O)O`, for which the fraction unbound is 0.08.

Tested on in a further data set: not listed separately
Put plainly: Half life in phosphate buffered saline at pH 7.4.
Details: not given
The class given is physicochemical.
Consider `Cc1ccc(/N=N/N(C)C(=O)N[C@@H](CCC(=O)O)C(=O)O)cc1`, for which the half-life worked out at 7.63 h.
Still for that read-out and setting: in the case of `CN(C(=O)OCc1ccc(NC(=O)N[C@@H](CCC(=O)O)C(=O)O)cc1)c1ccc(N(CCBr)CCBr)cc1` it was < 0.0667 h; in that of `CN(C(=O)OCc1ccc(NC(=O)N[C@@H](CCC(=O)O)C(=O)O)cc1)c1ccc(N(CCI)CCI)cc1`, < 0.0667 h; in that of `O=C(O)CC[C@H](NC(=O)Nc1ccc(N(CCCl)CCCl)cc1)C(=O)O`, 0.28 h.
`CN(/N=N/c1ccc(C#N)cc1)C(=O)N[C@@H](CCC(=O)O)C(=O)O` showed a half-life of 2.17 h.
Consider `O=C(O)CC[C@H](NC(=O)Nc1ccc(COC(=O)Nc2ccc(N(CCBr)CCBr)cc2N(CCBr)CCBr)cc1)C(=O)O`, for which the half-life is < 0.0667 h.
On to `O=C(O)CC[C@H](NC(=O)Nc1ccc(N(CCCl)CCCl)c(F)c1)C(=O)O`, for which the half-life was < 0.283 h.
Turning to `Cc1cc(NC(=O)Nc2ccc(N(CCCl)CCCl)cc2)c2ccccc2n1`, the half-life was 16.5 h.
On the same count and under the same terms, in the case of `CCOC(=O)c1ccc(/N=N/N(C)C(=O)N[C@@H](CCC(=O)OC)C(=O)OC)cc1` it was 102 h.
As to `O=C(O)CC[C@H](NC(=O)Nc1ccc(COC(=O)Nc2ccc(N(CCI)CCI)cc2N(CCI)CCI)cc1)C(=O)O`, the half-life was < 0.0667 h.
On the same count and under the same terms, with `CC(=O)c1ccc(/N=N/N(C)C(=O)N[C@@H](CCC(=O)O)C(=O)O)cc1` the figure was 0.0433 h; with `CN(/N=N/c1ccc(Br)cc1)C(=O)N[C@@H](CCC(=O)O)C(=O)O`, 3.66 h; with `CN(/N=N/c1ccc(C(N)=O)cc1)C(=O)N[C@@H](CCC(=O)O)C(=O)O`, 0.107 h.
`CCOC(=O)c1ccc(/N=N/N(C)C(=O)N[C@@H](CCC(=O)O)C(=O)O)cc1` had a half-life of 2.89 h. Against the preceding compound, the half-life is about 27-fold higher.
Still for that read-out and setting: with `O=C(O)CC[C@H](NC(=O)Nc1ccc(N(CCCl)CCCl)c(Cl)c1)C(=O)O` the figure was < 0.283 h.

A further data set relates to Pseudomonas sp. Kind of data set: Ratio of Kcat to Km for Pseudomonas sp. carboxypeptidase G2.
Details: not given
For `CN(/N=N/c1ccc(C#N)cc1)C(=O)N[C@@H](CCC(=O)O)C(=O)O`, the specificity constant (kcat/Km) worked out at 260000 M⁻¹ s⁻¹.
Still for that read-out and setting: in the case of `CCOC(=O)c1ccc(/N=N/N(C)C(=O)N[C@@H](CCC(=O)O)C(=O)O)cc1` it was 410000 M⁻¹ s⁻¹.

In the next data set the test system is Pseudomonas sp. Put plainly: Activity of Pseudomonas sp. carboxypeptidase G2 assessed as compound hydrolysis by Michaelis-Menten plot analysis.
Details: not given
As to `CN(C(=O)OCc1ccc(NC(=O)N[C@@H](CCC(=O)O)C(=O)O)cc1)c1ccc(N(CCCl)CCCl)cc1`, the Km is 6.1 µM.
Turning to `O=C(O)CC[C@H](NC(=O)Nc1ccc(N(CCCl)CCCl)cc1)C(=O)O`, the Km stood at 3 µM.
As for `CN(/N=N/c1ccc(C#N)cc1)C(=O)N[C@@H](CCC(=O)O)C(=O)O`, the Michaelis constant (Km) was determined as 17.7 µM, the Vmax was determined as 4.94 µM/min and the catalytic constant (kcat) came to 4.64 s⁻¹.
In the same order, the values of `CCOC(=O)c1ccc(/N=N/N(C)C(=O)N[C@@H](CCC(=O)O)C(=O)O)cc1` are 2.73 µM, 1.18 µM/min and 1.11 s⁻¹.

In general, half-life refers to the time needed for the level to fall by half in the phase considered. High values mean slow decline, low ones rapid decline. Broadly, the kcat/Km is the second-order rate constant that governs catalysis at low substrate concentration. The Km is the substrate concentration at which the rate is half of its maximum. As usually defined, the Vmax is the top rate of the reaction or transport when substrate is in excess. As usually defined, the kcat is the number of substrate molecules converted per active site and unit of time at saturation.

Source of the values: ChEMBL document CHEMBL2163338, “Development of triazene prodrugs for ADEPT strategy: new insights into drug delivery system based on carboxypeptidase G2 activation” (Bioorg Med Chem Lett, 2012).
